The values below come from US12324841B2, “Methods of treating cancer with a combination of an anti-PD-1 antibody and an anti-tissue factor antibody-drug conjugate” (GENMAB A/S, priority 2018, dated 2025).

Data set [1] deals with T cells. The experiment in a line: T cell activation in CSFE labeled PBMCs fed killed MDA-MB-231 cells, with or without pembrolizumab. As to conditions: 48 hours; for T cell proliferation (CSFE dilution) / production of IFNγ / production of IL12p70: without pembrolizumab. It is filed as cell-based, human. On the procedure: FIG. 8A-8C is a series of graphs in which Tissue Factor positive MDA-MB-231 cells killed with various agents were fed to CSFE labeled human peripheral blood mononuclear cells (PBMCs) in the presence or absence of the PD1 targeting antibody pembrolizumab for 48 hours and T cells activation assessed by A) decreased CSFE fluorescent indicative of T cell proliferation and B) and C) cytokine production.
Induction of the innate immune response following exposure to cancer cells undergoing ICD sets up secondary T cell activation, which can be enhanced by concomitant pembrolizumab treatment.

Data set [2] relates to HeLa cells. Description: Western blot analysis of ER stress in HeLa cells treated with MMAE. The conditions noted are these: 100 nM MMAE for 16 hours. It is filed as cell-based. As for the experimental part:
HeLa cells, a cervical cancer cell line, were cultured in Minimum Essential Medium (MEM) with 10% FBS, 10 mM HEPES, 1 mM sodium pyruvate, 2 mM L-glutamine, penicillin (100U/ml), and streptomycin (100 μg/ml). HeLa cells were treated with 100 nM MMAE for 16 hours and harvested in radioimmunoprecipitation assay buffer (RIPA) buffer for western blot analysis. […] Severe ER stress is a prerequisite to the exposure of pro-phagocytic signals on the surface of tumor cells, and can be indicated by activation of JNK signaling by phosphorylated IRE1.
Background: A western blot detects proteins with antibodies after separation by electrophoresis.

Data set [3] deals with CD14+ monocyte/macrophages. The experiment in a line: Monocyte/macrophage activation in PBMCs fed killed MDA-MB-231 cells. Format: cell-based, human. An excerpt: FIGS. 7A and 7B is a series of graphs in which Tissue Factor positive MDA-MB-231 cells killed with various agents were fed to human peripheral blood mononuclear cells (PBMCs) and immune activation assessed by increased expression of activations markers on innate CD14+ monocyte/macrophages and induction of chemokine and cytokine production.
Immunogenic cell death, as mediated by MMAE, is regulated cell death that activates adaptive immune responses against antigens from dead and dying tumor cells, and allows for the generation of robust innate immune cell activation and subsequent cytotoxic T cell responses targeted towards specific tumor cell antigens. […] Furthermore, these monocyte/macrophages conditioned by ICD-killed cells promote activation of T cells, as evidenced by production of signature inflammatory cytokines associated with cytotoxic T cell responses.

In data set [4] the test system is HeLa cells. The experiment in a line: Imaging of RFP-labeled tubulin and ER-binding dye in HeLa cells treated with MMAE. Format: cell-based. As to conditions: 100 nM MMAE. On the procedure:
Treatment of HeLa cells with MMAE led to disassembly of the microtubule network and subsequent ER mislocalization. HeLa cells were transduced with a baculovirus encoding RFP-labeled Tubulin (CellLight Tubulin-RFP, ThermoFisher Scientific) and an ER-binding dye (ER-ID Green, Enzo Life Sciences). Cells were treated with 100 nM MMAE and imaged over time in the present of MMAE. Within 2 hours, fragmentation and disassembly of the microtubule network became evident, concurrent with the breakdown of the perinuclear organized ER lattice (FIGS. 2A and 2B). The condensed and mislocalized ER skeleton indicated severe ER stress within 8 hours.

Data set [5] has as its system murine tumor cells that stably express human TF. Description: Syngeneic tumor model: immunization with drug-killed human TF positive murine tumor cells, then tumor challenge. The conditions noted are these: mice immunized with tumor cells killed by 1-5 μg per ml tisotumab vedotin or 100 nM MMAE. Format: in vivo, Balb/c mice. On the procedure:
Mouse tumor cells are transfected with plasmid constructs encoding human tissue factor (TF) and sgRNA-guided Cas9 nuclease (sgRNA/Cas9) to generate a murine cell line that expresses the human TF. Fluorescence activated cell sorting (FACS) yields a clonal population of murine tumor cells that stably express human TF, these cells are then treated with 1 μg to 5 μg per ml of tisotumab vedotin or 100 nM of MMAE for 4 days. In order to prepare dying cells for immunization, treated murine tumor cells are overlaid atop Histopaque, and centrifuged at 2000 g for 30 minutes. Dead and dying cells are pelleted underneath the Histopaque layer, and viability assessed by trypan blue exclusion. A sample with approximately <20% live cells as measured by trypan blue exclusion is obtained. Flash-frozen tumor cells are prepared by submerging the cells in liquid nitrogen for 10 seconds, followed by immersion in 37° C. water until completely thawed. The liquid nitrogen freeze-thaw process is repeated 5 times. Dead and dying human TF positive tumor cells are resuspended in phosphate buffered saline (PBS) and 2×10^6 cells are injected into the peritoneum of immune-competent Balb/c mice. Seven days later, mice receive a second immunization with dead and dying cells prepared in the same manner.
Fourteen days after initial immunization with the dead and dying human TF positive tumor cells, mice are subcutaneously implanted with 5×10^6 wild-type tumor cells and monitored for tumor growth. […] As these effects occur in the absence of any administered therapeutic agent, the administration of cells killed by tisotumab vedotin or MMAE is sufficient to generate long-lasting protective immune memory against subsequent tumor cell challenge. Protective immune memory is amplified by treating these mice with tisotumab vedotin in combination with an antibody that binds to murine PD-1.

Data set [6] concerns HeLa cells. Description: ATP and HMGB1 secretion from HeLa cells treated with MMAE. Format: cell-based. As to conditions: 100 nM MMAE, over 24 hours, vs untreated HeLa cells. An excerpt: Induction of ICD is also characterized by the secretion of ATP and HMGB1. Extracellular ATP serves as a strong chemotactic signal, promoting immune cell migration to the tumor site. Upon arrival, extracellular HMGB1 signals through various pro-inflammatory receptors (TLR2, TLR4, RAGE) to activate antigen-presenting cells, thereby promoting immune activity within the tumor.

The subject of data set [7] is Tissue Factor positive cell lines. Description: Cell death and release of ATP and HMGB1 from Tissue Factor positive cell lines. Format: cell-based. The source says:
Auristatin ADC payloads disrupt the microtubule networks resulting in altered ER localization and function, which ultimately results in ER stress.

Data set [8] concerns MDA-MB-231 (breast cell carcinoma). Description: Western blot analysis of ER stress induction in MDA-MB-231 cells. Format: cell-based. The conditions noted are these: MDA-MB-231, 18 hours (legend: 16 hours). As for the experimental part: (§1) Induction of cell death and release of ICD danger signals occurs concomitant with initiation of an ER stress response. Two Tissue Factor positive cell lines, HPAFII (pancreatic carcinoma) and MDA-MB-231 (breast cell carcinoma) were exposed to tisotumab vedotin ADC, an Isotype-MMAE ADC (H00-MMAE, IgG1 MMAE), or free MMAE for 18 hours and induction of ER stress monitored by western blot analysis. Phosphorylation of inositol-requiring transmembrane kinase/endonuclease 1 (IRE1) was detected after treatment with tisotumab vedotin ADC or MMAE free drug (FIG. 6). […] The ability for auristatins to prime the immune system to recognize tumor antigens opens the door for a myriad of combinatorial therapeutic options.

For data set [9], the system named is HPAFII (pancreatic carcinoma). Description: Western blot analysis of ER stress induction in HPAFII cells. Format: cell-based. The conditions noted are these: 18 hours (legend: 16 hours). On the procedure:
as §1

Data set [10] has as its system advanced cervical cancer. The conditions noted are these: in combination with chemotherapy; cited from earlier work.
In data set [11] the test system is advanced cervical cancer. As to conditions: Pembrolizumab 200 mg Q3W, 82 patients; cited from earlier work.
For data set [12] the following is noted: managed with interruptions of pembrolizumab, corticosteroids and/or other supportive care; cited from earlier work.
For data set [13], the system named is MDA-MB-231 cells (breast adenocarcinoma). Description: MDA-MB-231 xenograft model in humanized NSG mice. The conditions noted are these: pembrolizumab alone, first dose 10 mg/kg, then 5 mg/kg every five days, IP. Format: in vivo. As for the experimental part:
Mice were subcutaneously inoculated with 5×10^6 MDA-MB-231 cells (breast adenocarcinoma; American Tissue Culture Collection (ATCC), cat. no. HTB-26), in 100 μL phosphate-buffered saline (PBS). Before inoculation, cells were cultured in DMEM with high glucose and HEPES without L-glutamine (Lonza, cat. no. BE12-[…]), 10% (v/v) donor bovine serum with iron New Zealand Origin (Thermo Fisher Scientific, DBSI, cat. no. 10371-029), 2 mM L-glutamine (Lonza, cat. no. BE17-[…]), 1 mM Na-pyruvate (Lonza, cat. no. BE13-[…]), MEM non-essential amino acids (Life Technologies, cat. no. 11140) and 1% (v/v) penicillin/streptomycin (Lonza, cat. no. DE17-[…]), in CellSTACK culture chambers (Corning, cat. no. 3313). Tumor size was determined by caliper measurement at least two times a week and tumor volume was calculated as 0.52×length×width^2. […] The first dose of the anti-PD-1 antibody (i.e., pembrolizumab) was 10 mg/kg, followed by 5 mg/kg every five days for a maximum of six treatments. […] The IgG1 isotype control antibody is the b12 antibody which is known to bind to HIV-1 gp120. […] Mice were housed in individually ventilated (IVC) cages, five mice per cage and identified by ear tags. […] Statistical comparison of tumor burden was performed using Mann-Whitney analysis on the last day that all treatment groups were intact. Kaplan-Meier analysis was performed based on tumor volume (>500 mm^3).
A general note: Xenograft models place foreign cells or tissue in a host animal.

Where [14] appears, read: compared to IgG1-MMAE ADC or tisotumab alone.

Entries after “also recorded” stand apart in the source; their conditions may differ. Non-standard residues stand in square brackets, D forms with d. Residues, ends and D or L forms follow the SMILES beside them. *: point of attachment. Dolaproine = CO[C@@H]([C@@H]1CCCN1)[C@@H](C)C(=O)O; Dil = CC[C@H](C)[C@H](NC)[C@@H](CC(=O)O)OC; X1 = C[C@@H](N*)[C@@H](O)c1ccccc1; NMeV = CN[C@H](C(=O)O)C(C)C

Take `CC[C@H](C)[C@@H]([C@@H](CC(=O)N1CCC[C@H]1[C@H](OC)[C@@H](C)C(=O)N[C@H](C)[C@@H](O)c1ccccc1)OC)N(C)C(=O)[C@@H](NC(=O)[C@@H](NC)C(C)C)C(C)C` [MMAE, Monomethyl auristatin E, reference compound] (H-[NMeV]V[Dil][Dolaproine]-X1): in data set [1], the “T cell proliferation (CSFE dilution)” value is “drove T cell proliferation”; the “production of IFNγ” value is “production of T cell specific cytokines such as IL12P70 and IFNγ”; the “production of IL12p70” value is “production of T cell specific cytokines such as IL12P70 and IFNγ”. Besides, in data set [2], the “phosphorylation of IRE1” value was “led to phosphorylation of the serine threonine kinase IRE1”; the “phosphorylation of JNK” value was “elicited severe ER stress by phosphorylation of IRE1 and JNK”. Besides, the “chemotactic and inflammatory mediators from monocyte/macrophages after uptake of dead cells” value in data set [3] was “elicit strong chemotactic and inflammatory mediators”. In data set [3] (setting [14]), the “monocyte/macrophage activation, CD86 expression by flow cytometry” value is on record as “drove monocyte/macrophage activations” and the “release of innate chemokines including MIP 1β” value was “induced release of innate chemokines including MIP 1β”. Besides, in data set [4], the “time until fragmentation and disassembly of the microtubule network, with breakdown of the perinuclear ER lattice” value was ≤ 2 h; the “time until severe ER stress (condensed and mislocalized ER skeleton)” value was ≤ 8 h. In data set [5], the “survival after challenge with wild-type tumor cells” value was “increased survival” and the “tumor growth after challenge with wild-type tumor cells” value is recorded as “delayed tumor growth”. In [6], the “secretion of ATP” value was “increased secretion of ATP and HMGB1”; the “secretion of HMGB1” value is “increased secretion of ATP and HMGB1”. Besides, the ATP release/secretion result in [7] (FIG. 5A) is “drove robust A) ATP secretion; also recorded: specific to tisotumab vedotin ADC and MMAE treatment”. In addition, the HMGB1 release/secretion result in data set [7] (FIG. 5C) was “drove robust A) ATP secretion and C) HMGB1 release; also recorded: specific to tisotumab vedotin ADC and MMAE treatment”. Further, in data set [8], the “ATF4 cleavage (PERK pathway)” value is reported as “upregulation of ATF4 cleavage”, the “phosphorylation of IRE1” value is recorded as “detected” and the “phosphorylation of JNK” value was “increased phosphorylation”. Moreover, in [9], the “ATF4 cleavage (PERK pathway)” value is reported as “upregulation of ATF4 cleavage”, the “phosphorylation of IRE1” value is recorded as “detected” and the “phosphorylation of JNK” value is listed as “increased phosphorylation”.
Turning to Bevacizumab: an anti-VEGF antibody, the “overall survival in clinical trials” value in data set [10] was “improved overall survival”.
Turning to “pembrolizumab: anti-PD-1 antibody, a checkpoint inhibitor; heavy chain SEQ ID NO:33 and light chain SEQ ID NO:34 [reference compound]”, the objective response rate in data set [11] is on record as 12%. Besides, the “T cell proliferation driven by tisotumab vedotin or MMAE killed cells, effect of added pembrolizumab” value in data set [1] (2 mg/ml of pembrolizumab) is listed as “enhanced”. Besides, in data set [1] (concomitant pembrolizumab), the “production of IFNγ after tisotumab vedotin or MMAE killed cells, effect of added pembrolizumab” value is listed as “increased by concomitant pembrolizumab treatment” and the “production of IL12p70 after tisotumab vedotin or MMAE killed cells, effect of added pembrolizumab” value is given as “increased by concomitant pembrolizumab treatment”. For the same molecule, the “reversibility of immune-related AEs (irAEs)” value in [12] is recorded as “most irAEs were reversible”. In data set [13], the “tumor burden as assessed by tumor volume” value is “hardly reduced tumor burden”.
Take “tisotumab: anti-TF antibody 011; heavy chain variable region SEQ ID NO:7, light chain variable region SEQ ID NO:8”: in data set [1], the “T cell proliferation (CSFE dilution)” value was “did not elicit these responses”, the “production of IFNγ” value was “did not elicit these responses” and the “production of IL12p70” value was “did not elicit these responses”.
